# Where two headings read alike, the source gives them in different places.
# Columns and labels:
# Format in all cases: cell-based
# H358 cells [1] = assay: cells
# Description: The cytotoxicity of HGPF, cyclic peptide (CLYDVAGSDKYCGP), FN1-8, and FN1-8 methylamino derivative (FN1-8-CH2-NH2) was detected through CCK8 experiment. The cyclic peptide (CLYDVAGSDKYCGP) has a sequence shown in SEQ ID NO: 4, and it is Cys-Leu-Tyr-Asp-Val-Ala-Gly-Ser-Asp Lys-Tyr-Cys-Gly-Pro. The experimental steps are as follows:
# 8.1 Plate laying: Inoculate H358 cells in logarithmic growth phase into a 96-well plate (100 μl/well), with 6 replicate wells per group and a cell count of 5×10^3 cells per well, then place and culture in a 37° C., 5% CO2 incubator for 12 hours.
# 8.2 Use different concentrations of HGPF, HGPF+FAPα, cyclic peptides, FN1-8, and FN1-8-CH2-NH2 to treat with the experimental group. First, prepare the above drugs into a 100 mM mother solution, and then set […], namely 100 μM, 50 μM, 25 μM, 12.5 μM, 6.25 μM, 3.125 μM, 1.5625 μM, and 0.78125 μM, wherein the HGPF+FAPα group was the group added FAPα (1 μM) after adding the above concentrations of HGPF to simulate the tumor tissue microenvironment.
# 8.3 After 24 hours, wash the cells twice with PBS, then add 100 μL of pre-mixed CCK8 solution (culture medium:CCK8 working solution=9:1) to each well, and then continue to culture in a 37° C., 5% CO2 incubator for 2 hours.
# 8.4 Use a microplate reader to measure the absorbance D (2) of each well at a wavelength of 450 nm. Analyze the D (2) values of the blank group, the control group, and the experimental group to determine cellular activity. The cell survival rate reflects the cytotoxicity of drugs. The groups are as follows: • Experimental group (culture medium containing cells, CCK-8, test drug) • Control group (culture medium containing cells, CCK-8, without test drug) • Blank group (culture medium without cells and test substance, containing CCK-8)
# H358 cells [2] = assay: Scratch test, proliferation and migration of lung cancer cells; conditions: H358, 10 μM, 24 hours
# Description: The inhibitory effects of the conjugate HGPF and cyclic peptide (CLYDVAGSDKYCGP) on the proliferation and migration of lung cancer cells were detected by scratch test. The experimental steps are as follows:
# 9.1 Plate laying: First, mark 3 positioning lines at the bottom of the 6-well plate, then inoculate H358 cells in logarithmic growth phase onto the 6-well plate (2 ml/well), with a cell count of 1×10^6 per well, and then culture in a 37° C., 5% CO2 incubator for 24 hours.
# 9.2 Marking: Place the plate cover above the 6-well plate, use a 100μ pipettor tip to draw 3 straight lines vertically for each hole; then wash 4 times with PBS to wash away floating cell debris.
# 9.3 Administration: Replace the culture medium with a medium containing 2% serum, administer 10 μM of the drug to each group, take photos at 0 and 24 hours, observe scratch healing, and analyze with ImageJ software.
# KRAS G12C = biological target: T1, KRAS G12C (Homo sapiens, UniProt P01116, G12C); assay: Specificity of HGP-FITC targeting KRAS G12C (pre-blocking, flow cytometry); conditions: then 25 μM HGP-FITC, 8 hours
# T1 construct: endogenous in cells; host or cells: H358 lung cancer cells
# T1 sequence (P01116 1-188 isoform P01116-2 G12C): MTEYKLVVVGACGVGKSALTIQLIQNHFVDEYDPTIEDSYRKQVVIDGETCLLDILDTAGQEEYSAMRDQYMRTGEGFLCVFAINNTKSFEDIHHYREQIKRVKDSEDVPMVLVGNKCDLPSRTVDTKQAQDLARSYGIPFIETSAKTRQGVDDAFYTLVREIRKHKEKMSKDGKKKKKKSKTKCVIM
# Description: 6.3 Based on the flow cytometry results, select a concentration of 25 μM for subsequent experiments. The lung cancer cell line H358 (carrying KRAS G12C mutation) was first blocked with 1:1000 KRAS antibody or 10 μM Sotorasib (KRAS G12C inhibitor) for 24 hours, and then incubated with 25 μM HGP-FITC. Fluorescence uptake was detected by flow cytometry after 8 hours.
# [3] = tested on: lung cancer cell line H358 (carrying KRAS G12C mutation); assay: Uptake of HGP-FITC by lung cancer cells, flow cytometry; conditions: different concentrations, 8 hours
# Description: 6.2 Incubate lung cancer cell line H358 (carrying KRAS G12C mutation) with different concentrations of HGP-FITC, and detect by flow cytometry after 8 hours.
smiles,measurement,setting,value
"O=C(NCc1ccc(O)cc1)C1C(c2ccccc2)=NN(c2ccccc2)C1c1ccccc1 (stereo not drawn) [FN1-8, reference compound]",cytotoxicity against lung cancer cells,H358 cells [1],good cytotoxicity
same,effect of further increasing the concentration on cell viability,"H358 cells [1]; H358, 24 hours, up to 100 μM",cannot achieve the effect of completely inhibiting cell viability
same,IC50,"H358 cells [1]; Homo sapiens, NCI-H358, 24 h",4.34 µM
"CC(C)C[C@@H]1NC(=O)[C@@H](N)CSSC[C@@H](C(=O)NCC(=O)N2CCC[C@H]2C(=O)O)NC(=O)[C@H](Cc2ccc(O)cc2)NC(=O)[C@H](CCCCN)NC(=O)[C@H](CC(=O)O)NC(=O)[C@H](CO)NC(=O)CNC(=O)[C@H](C)NC(=O)[C@H](C(C)C)NC(=O)[C@H](CC(=O)O)NC(=O)[C@H](Cc2ccc(O)cc2)NC1=O [cyclic peptide, Cys-Leu-Tyr-Asp-Val-Ala-Gly-Ser-Asp Lys-Tyr-Cys-Gly-Pro]",cytotoxicity against lung cancer cells,H358 cells [1],weak cytotoxicity
same,inhibitory effect on proliferation and migration of tumor cells,H358 cells [2]; without FAPα,no inhibitory effect
NCc1ccc(CNC(=O)C2C(c3ccccc3)=NN(c3ccccc3)C2c2ccccc2)cc1 (stereo not drawn) [FN1-8-CH2-NH2],cytotoxicity against lung cancer cells,H358 cells [1],good cytotoxicity
same,inhibition at 100 µM,"H358 cells [1]; Homo sapiens, NCI-H358, 100 μM, 24 hours, read-out: inhibition rate on H358 cells",100%
same,IC50,"H358 cells [1]; Homo sapiens, NCI-H358, H358, 24 hours, CCK8, read-out: IC50",4.68 µM
CC(C)C[C@@H]1NC(=O)[C@@H](N)CSSC[C@@H](C(=O)NCC(=O)N2CCC[C@H]2C(=O)NCc2ccc(CNC(=O)C3C(c4ccccc4)C(c4ccccc4)=NN3c3ccccc3)cc2)NC(=O)[C@H](Cc2ccc(O)cc2)NC(=O)[C@H](CCCCN)NC(=O)[C@H](CC(=O)O)NC(=O)[C@H](CO)NC(=O)CNC(=O)[C@H](C)NC(=O)[C@H](C(C)C)NC(=O)[C@H](CC(=O)O)NC(=O)[C@H](Cc2ccc(O)cc2)NC1=O (stereo partly drawn) [HGPF],cytotoxicity against lung cancer cells,H358 cells [1],weak cytotoxicity
same,IC50,H358 cells [1]; 24 h,3.66 µM
same,inhibitory effect on proliferation and migration of tumor cells,H358 cells [2]; with FAPα,significantly inhibited
same,inhibitory effect on proliferation and migration of tumor cells,H358 cells [2]; without FAPα,no inhibitory effect
CC(C)C[C@@H]1NC(=O)[C@@H](N)CSSC[C@@H](C(=O)NCC(=O)N2CCC[C@H]2C(=O)NCCCCC(NC(=S)Nc2ccc3c(c2)C(=O)OC32c3ccc(O)cc3Oc3cc(O)ccc32)C(=O)O)NC(=O)[C@H](Cc2ccc(O)cc2)NC(=O)[C@H](CCCCN)NC(=O)[C@H](CC(=O)O)NC(=O)[C@H](CO)NC(=O)CNC(=O)[C@H](C)NC(=O)[C@H](C(C)C)NC(=O)[C@H](CC(=O)O)NC(=O)[C@H](Cc2ccc(O)cc2)NC1=O (stereo partly drawn) [HGP-FITC],uptake of HGP-FITC by H358 cells after pre-block with Sotorasib,KRAS G12C; 10 μM Sotorasib 24 hours,significantly reduced
same,uptake of HGP-FITC by H358 cells after pre-block with KRAS antibody,KRAS G12C; 1:1000 KRAS antibody 24 hours,significantly reduced
same,uptake of HGP-FITC by H358 cells,[3],concentration dependent manner

# Source: US20250345311A1, “CONJUGATE OF POLYPEPTIDE AND SMALL MOLECULE TARGETING KRAS AND ANTI-CANCER APPLICATION THEREOF” (Guangzhou Medical University, priority 2024, published 2025)
